# Measurements: PubChem BioAssay (NCI)
#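 A five-concentration, 48-hour dose response in 96-well plates underlies each endpoint, interpolated linearly between surrounding concentrations. Abbreviation: GI50, concentration required for 50% inhibition of growth. At the TGI there is no net growth.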
# Legend:
# Assay in all cases: NCI anticancer screen, dose series, 48 h
# [1] = test system: 786-0 renal
# [2] = test system: A498 renal
# [3] = test system: A549 NSCLC
# [4] = test system: ACHN renal
# [5] = test system: BT-549 breast
# [6] = test system: CAKI-1 renal
# [7] = test system: CCRF-CEM leukemia
# [8] = test system: COLO 205 colon
# [9] = test system: DU-145 prostate
# [10] = test system: EKVX NSCLC
# [11] = test system: HCC-2998 colon
# [12] = test system: HCT-116 colon
# [13] = test system: HCT-15 colon
# [14] = test system: HL-60(TB) leukemia
# [15] = test system: HOP-62 NSCLC
# [16] = test system: HOP-92 NSCLC
# [17] = test system: HS 578T breast
# [18] = test system: HT29 colon
# [19] = test system: IGROV1 ovarian
# [20] = test system: K-562 leukemia
# [21] = test system: KM12 colon
# [22] = test system: LOX IMVI melanoma
# [23] = test system: M14 melanoma
# [24] = test system: MALME-3M melanoma
# [25] = test system: MCF7 breast
# [26] = test system: MDA-MB-231 breast
# [27] = test system: MDA-MB-435
# [28] = test system: MOLT-4 leukemia
# [29] = test system: NCI-H226 lung
# [30] = test system: NCI-H23 lung
# [31] = test system: NCI-H460 lung
# [32] = test system: NCI-H522 lung
# [33] = test system: NCI/ADR-RES ovarian
# [34] = test system: OVCAR-3 ovarian
# [35] = test system: OVCAR-4 ovarian
# [36] = test system: OVCAR-5 ovarian
# [37] = test system: OVCAR-8 ovarian
# [38] = test system: PC-3 prostate
# [39] = test system: RPMI-8226 leukemia
# [40] = test system: SF-268 CNS
# [41] = test system: SF-295 CNS
# [42] = test system: SF-539 CNS
# [43] = test system: SK-MEL-2 melanoma
# [44] = test system: SK-MEL-28 melanoma
# [45] = test system: SK-MEL-5 melanoma
# [46] = test system: SK-OV-3 ovarian
# [47] = test system: SN12C renal
# [48] = test system: SNB-19 CNS
# [49] = test system: SNB-75 CNS
# [50] = test system: SR leukemia
# [51] = test system: SW-620 colon
# [52] = test system: T-47D breast
# [53] = test system: TK-10 renal
# [54] = test system: U251 CNS
# [55] = test system: UACC-257 melanoma
# [56] = test system: UACC-62 melanoma
# [57] = test system: UO-31 renal
smiles,measurement,setting,value
O=C(CCCCCCNC(=O)C(O)(O)C(F)(F)F)Nc1ccc(Br)cc1,GI50,[1],4.47 µM
same,TGI,[1],> 33 µM
same,GI50,[2],1.09 µM
same,TGI,[2],9.68 µM
same,GI50,[3],8.39 µM
same,TGI,[3],> 33 µM
same,GI50,[4],2.65 µM
same,TGI,[4],17.7 µM
same,GI50,[5],6.42 µM
same,TGI,[5],> 33 µM
same,GI50,[6],7.02 µM
same,TGI,[6],> 33 µM
same,GI50,[7],1.9 µM
same,TGI,[7],> 33 µM
same,GI50,[8],5.02 µM
same,TGI,[8],17.7 µM
same,GI50,[9],5.46 µM
same,TGI,[9],> 33 µM
same,GI50,[10],5.49 µM
same,TGI,[10],> 33 µM
same,GI50,[11],5.35 µM
same,TGI,[11],13.2 µM
same,GI50,[12],1.12 µM
same,TGI,[12],> 33 µM
same,GI50,[13],5.23 µM
same,TGI,[13],14.1 µM
same,GI50,[14],2.21 µM
same,TGI,[14],> 33 µM
same,GI50,[15],4.29 µM
same,TGI,[15],> 33 µM
same,GI50,[16],0.554 µM
same,TGI,[16],3.25 µM
same,GI50,[17],3.84 µM
same,TGI,[17],30.1 µM
same,GI50,[18],5.11 µM
same,TGI,[18],> 33 µM
same,GI50,[19],4.48 µM
same,TGI,[19],14.1 µM
same,GI50,[20],1.2 µM
same,TGI,[20],> 33 µM
same,GI50,[21],4.82 µM
same,TGI,[21],24.3 µM
same,GI50,[22],2.9 µM
same,TGI,[22],7.5 µM
same,GI50,[23],7.12 µM
same,TGI,[23],> 33 µM
same,GI50,[24],1.54 µM
same,TGI,[24],> 33 µM
same,GI50,[25],7.77 µM
same,TGI,[25],> 33 µM
same,GI50,[26],2.12 µM
same,TGI,[26],16.6 µM
same,GI50,[27],3.64 µM
same,TGI,[27],> 33 µM
same,GI50,[28],1.42 µM
same,TGI,[28],> 33 µM
same,GI50,[29],8.33 µM
same,TGI,[29],> 33 µM
same,GI50,[30],4.6 µM
same,TGI,[30],19.6 µM
same,GI50,[31],2.41 µM
same,TGI,[31],> 33 µM
same,GI50,[32],4.19 µM
same,TGI,[32],22.8 µM
same,GI50,[33],4.12 µM
same,TGI,[33],18.6 µM
same,GI50,[34],2.22 µM
same,TGI,[34],7.5 µM
same,GI50,[35],13.4 µM
same,TGI,[35],> 33 µM
same,GI50,[36],1.96 µM
same,TGI,[36],12.5 µM
same,GI50,[37],2.32 µM
same,TGI,[37],> 33 µM
same,GI50,[38],2.86 µM
same,TGI,[38],> 33 µM
same,GI50,[39],1.9 µM
same,TGI,[39],> 33 µM
same,GI50,[40],5.78 µM
same,TGI,[40],21.8 µM
same,GI50,[41],2.73 µM
same,TGI,[41],8.17 µM
same,GI50,[42],5.87 µM
same,TGI,[42],> 33 µM
same,GI50,[43],3.29 µM
same,TGI,[43],20.1 µM
same,GI50,[44],2.38 µM
same,TGI,[44],18.7 µM
same,GI50,[45],4.14 µM
same,TGI,[45],8.46 µM
same,GI50,[46],1.95 µM
same,TGI,[46],17.3 µM
same,GI50,[47],5.01 µM
same,TGI,[47],24.6 µM
same,GI50,[48],5.58 µM
same,TGI,[48],18.1 µM
same,GI50,[49],3 µM
same,TGI,[49],> 33 µM
same,GI50,[50],1.74 µM
same,TGI,[50],> 33 µM
same,GI50,[51],1.57 µM
same,TGI,[51],7.16 µM
same,GI50,[52],1.69 µM
same,TGI,[52],24.3 µM
same,GI50,[53],1.09 µM
same,TGI,[53],> 33 µM
same,GI50,[54],3.64 µM
same,TGI,[54],17.6 µM
same,GI50,[55],6.7 µM
same,TGI,[55],> 33 µM
same,GI50,[56],1.59 µM
same,TGI,[56],6.2 µM
same,GI50,[57],1.98 µM
same,TGI,[57],14.8 µM
